Patent publication US8551958B2, “Galactosylated pro-drugs of non-steroidal anti-inflammatories with improved pharmacokinetic characteristics and reduced toxicity of the starting drug” (Stewart Italia Srl, priority 2008, dated 2013)
Entries after “also recorded” stand apart in the source; their conditions may differ.

What was measured:
[1] = test system: male Swiss mice; assay: Chronic and sub-chronic experiments: liver, kidney and stomach examination; assay type: in vivo
Method: (§1) Animals were sacrificed and then liver, stomach and kidney were collected in glass tubes and analysed histologically and biochemically.
(§2) Liver samples were fixed in 10% buffered formalin and embedded in paraffin, sliced, and stained with hematoxylin & eosin (H&E) for assessment of liver pathology. […] To confirm histological data, western blot analysis for TNF-alpha, IL-6 and malonyldialdehyde assay were then performed in liver lysates.

[2] = Enzymatic stability in plasma, HPLC; assay type: in vitro ADME; details: plasma specimen, 37° C., in the dark; read-out: Plasma T½ (converted)
Method: For the stability study, the solutions of pro-drug were prepared by dissolving an aliquot of Ketogal in a phosphate buffer at pH 7.4, or else in a solution of HCl 0.1 N (pH 1), as regards chemical stability, or else in a plasma specimen, for enzymatic stability. The solutions were kept in the dark, at a temperature of 37° C., for 24 hours. After each hour an aliquot of specimen was taken. In the case of plasma, said aliquot was previously extracted with acetonitrile (1:2), “vortexed” and centrifuged at 3000 r.p.m. for 10 min. The supernatant was taken and used for analysis at HPLC with diode detector. The half-lives for chemical stability and enzymatic stability were calculated by quantizing, in time, the percentage of pro-drug that remained in solution. For the chromatographic separations, a 1090L HPLC (Hewlett-Packard, Palo Alto, USA) was used, coupled to a diode detector HP 1040A. A Phenomenex Luna C18 (250×4.6 mm, 5 μm) column was used. The wavelength used was 313 nm. The mobile phase was constituted by acetonitrile and an aqueous solution of phosphoric acid […] (pH 3) in the ratio of 68:32. The flow was 1 mL/min, with an injection volume of 20 μl. All the reagents and the solvents used were of analytical degree. The distilled and deionized water was purified by means of a Milli Q system (Millipore). […] The straight line of calibration for quantification of the compounds was constructed using standard solutions with concentrations of between 0.1 and 100 μg/ml. […]
For the study of the stability, the solutions of pro-drug were prepared by dissolving an aliquot of Flugal in a phosphate buffer at pH 7.4, as regards chemical stability, or else in a plasma specimen, for enzymatic stability. […] The half-lives for the chemical stability and enzymatic stability were calculated by quantizing, in time, the percentage of pro-drug that remained in solution. […] For the quantitative determination reading was made at 250 nm. […] The straight line of calibration for the quantification of the compounds was constructed using standard solutions with concentrations of between 0.1 and 100 μg/ml. […]

[3] = Pharmacokinetic studies (plasma, stomach, kidney, liver); assay type: in vivo, Wistar rats
Method: The pharmacokinetic profile of Ketogal and of ketorolac was evaluated in Wistar rats by measuring the concentration of the two compounds in the plasma, in the stomach, in the kidney, and in the liver. The rats received ketorolac (0.100 mg/kg) or Ketogal (0.163 mg/kg) by oral route and were sacrificed after 1 h, 2 h, 4 h, and 6 h from administration. The various specimens were treated with acetonitrile, and the suspension was “vortexed” and centrifuged at 3000 r.p.m. for 10 min. The organic phase was injected in the same HPLC system used for the stability assays.

[4] = test system: lipid peroxidation; assay: Malonyldialdehyde assay in liver lysates; assay type: in vivo, mice; details: ketogal 16.3 mg/Kg oral for 3, 5 and 7 days
Method: as §1, §2

[5] = test system: IL-6; assay: Western blot in liver lysates, IL-6; assay type: in vivo, mice; details: ketogal 16.3 mg/Kg oral for 3, 5 and 7 days
Method: as §1, §2

[6] = test system: COX-1; assay: Western blot, stomach, COX-1 protein expression; assay type: in vivo, mice; details: ketorolac 10 mg/Kg, ketogal 16.3 mg/Kg, oral, 3, 5 and 7 days; versus control stomachs
Source text: as §1

[7] = test system: TNF-alpha; assay: Western blot in liver lysates, TNF-alpha; assay type: in vivo, mice; details: ketogal 16.3 mg/Kg oral for 3, 5 and 7 days
Method: as §1, §2

[8] = test system: PGE synthase; assay: Western blot, stomach, PGE synthase protein expression; assay type: in vivo, mice; details: ketorolac 10 mg/Kg, ketogal 16.3 mg/Kg, oral, 3, 5 and 7 days
Source text: as §1

Liver histology (H&E) ([1]; ketogal 16.3 mg/Kg oral for 3, 5 and 7 days): normal liver histology
Kidney histology ([1]; ketorolac 10 mg/Kg, ketogal 16.3 mg/Kg, oral, after 3, 5 and 7 days): normal kidney histology
half-life [2]: 1.5 h
Presence of the pro-drug in plasma ([3]; oral, Ketogal 0.163 mg/kg): the pro-drug was not present
Presence of the pro-drug in the kidney ([3]; oral, Ketogal 0.163 mg/kg): no traces of the pro-drug
Presence of the pro-drug in the liver ([3]; oral, Ketogal 0.163 mg/kg): Ketogal reappeared
Lipid peroxidation level in liver (malonyldialdehyde) [4]: no different compared to control mice
IL-6 level in liver [5]: no different compared to control mice
TNF-alpha level in liver [7]: no different compared to control mice
SMILES: O=C(c1ccccc1)c1ccc2n1CC[C@@H]2C(=O)OCC1O[C@H](O)C(O)C(O)[C@H]1O (mixture of isomers) [Ketogal, ketorolac-D-galactos-6′-yl ester]
Hepatic inflammation and/or damage (biochemical analysis) ([1]; ketogal 16.3 mg/Kg oral for 3, 5 and 7 days, liver lysates): no hepatic inflammation and/or damage
Stomach samples, ulcerogenicity ([1]; ketorolac 10 mg/Kg, ketogal 16.3 mg/Kg, oral, for 3 days): undamaged and similar to control
Oral availability ([3]; compared with ketorolac): better oral availability than ketorolac; also recorded: increased the oral availability of ketorolac
Behaviour of the pro-drug in the stomach ([3]; oral, Ketogal 0.163 mg/kg): hydrolyses progressively, releasing ketorolac
Concentration of ketorolac in the liver after Ketogal versus drug alone ([3]; oral, Ketogal 0.163 mg/kg versus ketorolac 0.100 mg/kg): always higher following upon administration of Ketogal
Plasma levels of ketorolac after administration of Ketogal versus ketorolac as such ([3]; oral, Ketogal 0.163 mg/kg, ketorolac 0.100 mg/kg, 1 h, 2 h, 4 h, 6 h): higher than the ones observed following upon administration of the drug as such
Gastric COX-1 protein expression [6]: not inhibited
Gastric PGE synthase protein expression [8]: not inhibited
